Experimental data as given in patent publication US5206255A, “Heterocyclic compound” (Mitsubishi Kasei Corporation, priority 1989, dated 1993).
Read-outs that look alike come from different tables or passages of the source.

How the values were obtained:
[1] = system: Ear Edema Caused by Arachidonic Acid; assay: Suppressing effect on ear edema caused by arachidonic acid; type: in vivo, ICR male mice; conditions: Mus musculus, 1 h, thickness after one hour, read-out: Suppression rate (ear edema); for inhibition in vivo at 50 mg/kg: oral administration, one hour before inflammatory agent (2 mg arachidonic acid); for inhibition in vivo at 0.1 mg: topical, local application, 0.1 mg/auricle, 30 min before inflammatory agent (2 mg arachidonic acid)
Experimental: The thickness of auricles of ICR male mice of 6 week-age was measured by using a micrometer. On both sides of one of the auricles of each mouse, was applied 2 mg of arachidonic acid dissolved in acetone as the inflammatory agent to cause inflammation thereon. The thickness of the auricle after one hour of the application was measured and the difference between the thickness obtained and the thickness before the application was taken as the value of ear edema. The compound according to the present invention dissolved in ethanol or only ethanol as a control were orally administrated or applied localy. In the case of oral administration, 50 mg/kg of the compound according to the present invention was administrated one hour before the application of the inflammatory agent, and 0.1 mg/auricle was applied 30 min before the application in the case of local application.
The suppression rate of ear edema of the compound according to the present invention was calculated based on the ratio of the suppression to the value of ear edema in the control group and the results are shown in Tables 6 and 7 (Compound numbers in Tables 6 and 7 correspond to the Compound numbers in Table 1).
Further, benoxaprofen and NDGA were used as the comparison.

[2] = literature; cited from earlier work
lipoxygenase = molecular target: T1, lipoxygenase (Rattus norvegicus, UniProt P12527); assay: Inhibition activity to lipoxygenase (leukotriene production by rat abdominal cells, bioassay on guinea pig ileum); type: cell-based, Wister rat; conditions: read-out: Inhibition intensity; for inhibition at 1 µM: 10^-6 M (final concentration)
T1 construct: abdominal cells of Wister rat (7 to 12 week-age); endogenous in cells; host or cells: abdominal (peritoneal) cells of Wister [Wistar] rat
T1 sequence (P12527 1-673): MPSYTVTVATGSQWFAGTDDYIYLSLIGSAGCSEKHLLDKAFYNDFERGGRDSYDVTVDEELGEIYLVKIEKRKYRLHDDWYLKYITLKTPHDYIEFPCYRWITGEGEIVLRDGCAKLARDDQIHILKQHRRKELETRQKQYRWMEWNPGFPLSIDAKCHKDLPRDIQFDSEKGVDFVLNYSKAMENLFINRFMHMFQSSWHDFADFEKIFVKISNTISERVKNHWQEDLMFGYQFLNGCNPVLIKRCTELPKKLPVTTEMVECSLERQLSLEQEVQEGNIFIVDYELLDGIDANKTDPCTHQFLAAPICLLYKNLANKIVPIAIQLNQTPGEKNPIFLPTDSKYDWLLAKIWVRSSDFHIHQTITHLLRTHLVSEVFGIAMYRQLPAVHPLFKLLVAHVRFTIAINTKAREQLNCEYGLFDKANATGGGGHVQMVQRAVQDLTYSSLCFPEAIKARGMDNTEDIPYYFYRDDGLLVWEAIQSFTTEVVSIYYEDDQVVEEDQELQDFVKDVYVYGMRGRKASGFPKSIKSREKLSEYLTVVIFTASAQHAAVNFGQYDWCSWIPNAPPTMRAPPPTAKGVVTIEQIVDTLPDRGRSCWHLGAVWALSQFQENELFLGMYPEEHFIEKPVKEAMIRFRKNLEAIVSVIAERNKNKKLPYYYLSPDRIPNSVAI
Experimental: In 0.9 ml of Hunks' solution, were suspended 2×10^6 of abdominal cells of Wister rat (7 to 12 week-age) and incubated at 37° C. for 15 min after adding 10^-7 M of arachidonic acid and the compound of the present invention dissolved in ethanol, or only 10^-7 M of arachidonic acid and ethanol as a control. Further, 100 μl of 5 μg/μl of calcium inonophore A-23187 was added and the incubation was further continued at 37° C. for 15 min to produce leukotrienes. After cooling the reaction mixture with ice for 20 min to terminate the reaction, the reaction mixture was subjected to centrifugation at 4° C. for 10 min at 3000 rpm. The inhibition activity to lipoxygenase of the compound according to the present invention was measured by bioassay of leukotrienes contained in the resultant supernatants by using a Magunus' device while taking the contraction reaction of ileum extirpated from guinea pig as the indication. The inhibition rate of the compound according to the present invention was calculated based on the ratio of the suppression due to the compound with respect to the extent of the contraction reaction in the control group, and the intensity of inhibition based thereon is shown in the following Tables 4 and 5 (Compound numbers in Tables 4 and 5 correspond to the Compound numbers in Table 1).

[3] = parameters: species or system ICR male mice; conditions: mouse, in vivo, po, 2000 mg/kg
Experimental: The compounds according to the present invention (Compound No. 44 in Table 1) suspended in an aqueous 1% tragacanth solution was orally administrated by 2000 mg/kg to 6 week-age ICR male mice.

[4] = 10^-5 M (final concentration), rat abdominal cells, calcium ionophore A-23187
[5] = rat abdominal cells, calcium ionophore A-23187

Structure (SMILES)	inhibition at 10 µM (lipoxygenase; [4]) [%]	inhibition at 1 µM (lipoxygenase; [5]) [%]	further results
CC(C(=O)O)c1ccc2oc(-c3ccc(Cl)cc3)nc2c1 (centres unmarked) [Benoxaprofen, benoxaprofen]	–	–	inhibition in vivo at 50 mg/kg [1]: 15.3%; adverse effect [2]: grave adverse effect; effect on psoriasis [2]: effective to psoriasis
c1ccc(OCCCOc2ccc(Cc3nc4ccccc4s3)cc2)cc1 [Compound 1, 2-[4-(3-phenoxy)propoxybenzyl]benzothiazole]	80 to 100	20 to 50	–
c1ccc(OCCCOc2ccc(Cc3nc4ccccc4o3)cc2)cc1 [Compound 2, 2-[4-(3-phenoxy)propoxybenzyl]benzoxazole]	80 to 100	20 to 50	–
c1ccc(OCCCCCCOc2ccc(Cc3nc4ccccc4o3)cc2)cc1 [Compound 5]	80 to 100	20 to 50	–
Clc1cc(OCCCCOc2ccccc2)ccc1Cc1nc2ccccc2o1 [Compound 6]	80 to 100	–	inhibition in vivo at 0.1 mg [1]: 48.5%
Clc1ccccc1OCCCCOc1ccc(Cc2nc3ccccc3o2)cc1 [Compound 7]	50 to 80	20 to 50	–
Cc1ccccc1OCCCCOc1ccc(Cc2nc3ccccc3o2)cc1 [Compound 10]	50 to 80	20 to 50	–
Fc1ccc(OCCCCOc2ccc(Cc3nc4ccccc4o3)cc2)cc1 [Compound 15]	50 to 80	20 to 50	–
c1ccc(COCCCOc2ccc(Cc3nc4ccccc4o3)cc2)cc1 [Compound 19]	80 to 100	50 to 80	–
COCCCCOc1ccc(Cc2nc3ccccc3o2)cc1 [Compound 25]	50 to 80	20 to 50	–
C(#Cc1ccccc1)CCCOc1ccc(Cc2nc3ccccc3o2)cc1 [Compound 29]	80 to 100	20 to 50	–
CC#CCOc1ccc(Cc2nc3ccccc3o2)c(Cl)c1 [Compound 34]	50 to 80	–	inhibition in vivo at 0.1 mg [1]: 42.9%
CCCC#CCOc1ccc(Cc2nc3ccccc3o2)cc1 [Compound 37]	80 to 100	20 to 50	inhibition in vivo at 0.1 mg [1]: 42.1%
Clc1cc(Cc2nc3ccccc3o2)ccc1OCCCCOc1ccccc1 [Compound 44]	80 to 100	50 to 80	inhibition in vivo at 50 mg/kg [1]: 80.7%; Anatomic inspection [3]: no abnormality was observed; Condition and body weight [3]: no change was recognized at all
Clc1cc(Cc2nc3ccccc3o2)ccc1OCCCC#Cc1ccccc1 [Compound 47]	80 to 100	–	–
COCCCCOc1ccc(Cc2nc3ccccc3o2)cc1Cl [Compound 51]	80 to 100	50 to 80	–
OCC#CCCCC#CCCCOc1ccc(Cc2nc3ccccc3o2)cc1Cl [Compound 57]	80 to 100	–	inhibition in vivo at 0.1 mg [1]: 49.8%
Clc1ccc(OCCCCOc2ccc(Cc3nc4ccccc4o3)cc2Cl)cc1 [Compound 62]	50 to 80	20 to 50	inhibition in vivo at 0.1 mg [1]: 32.9%
CCCCOc1cccc(Cc2nc3ccccc3o2)c1 [Compound 71]	80 to 100	–	inhibition in vivo at 50 mg/kg [1]: 77.9%
CC#CCOc1cccc(Cc2nc3ccccc3o2)c1 [Compound 73]	80 to 100	20 to 50	inhibition in vivo at 50 mg/kg [1]: 85.1%
C(#Cc1ccccc1)CCCOc1ccccc1Cc1nc2ccccc2o1 [Compound 89]	50 to 80	20 to 50	–
C(#CCOc1ccccc1Cc1nc2ccccc2o1)CCCC#Cc1ccccc1 [Compound 90]	80 to 100	20 to 50	–
CC#CCOc1ccccc1Cc1nc2ccccc2o1 [Compound 96]	80 to 100	–	inhibition in vivo at 50 mg/kg [1]: 71.8%
C#CCCCC#CCOc1ccccc1Cc1nc2ccccc2o1 [Compound 98]	50 to 80	–	inhibition in vivo at 0.1 mg [1]: 50.2%
CC#CCOc1cccc(Cl)c1Cc1nc2ccccc2o1 [Compound 100]	80 to 100	50 to 80	–
C#CCCCOc1ccc(Cl)cc1Cc1nc2ccccc2o1 [Compound 112]	50 to 80	20 to 50	–
C#CCCCOc1c(Cl)cccc1Cc1nc(-c2ccccc2)co1 [Compound 125]	–	–	inhibition in vivo at 0.1 mg [1]: 41.7%
CC#CCOc1cccc(Cc2nc(-c3ccccc3)co2)c1 [Compound 129]	50 to 80	–	–
CC(Cc1ccc(O)c(O)c1)C(C)Cc1ccc(O)c(O)c1 (centres unmarked) [NDGA, Nordihydroguaiaretic acid, reference compound]	–	–	inhibition in vivo at 0.1 mg [1]: 18.2%; inhibition at 10 µM (lipoxygenase): 0 to 20%
